Assay results from the supplement of paper PMC10307832.

Columns and labels:
Assay in all cases: relative viability (nuclei count vs DMSO), 5 days (fraction); higher = more cells survive
Gemcitabine + Navitoclax = compound: Nc1ccn([C@@H]2O[C@H](CO)[C@@H](O)C2(F)F)c(=O)n1 [Gemcitabine] + CC1(C)CCC(c2ccc(Cl)cc2)=C(CN2CCN(c3ccc(C(=O)NS(=O)(=O)c4ccc(N[C@H](CCN5CCOCC5)CSc5ccccc5)c(S(=O)(=O)C(F)(F)F)c4)cc3)CC2)C1 [Navitoclax] (partner 0.5 µM)
In short: (§1)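 Dosing by pin tool came one day after lung cancer cell lines were seeded in 1536-well plates, using either one drug or a fixed anchor-drug dose plus five library-drug doses (not always all listed) in √10 steps. After 5 days, nuclei were counted on 4× images. Relative viability is treated-well nuclei count divided by vehicle-well nuclei count, and values are medians of duplicate plates.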

Gemcitabine + Luminespib = compound: Nc1ccn([C@@H]2O[C@H](CO)[C@@H](O)C2(F)F)c(=O)n1 [Gemcitabine] + CCNC(=O)c1noc(-c2cc(C(C)C)c(O)cc2O)c1-c1ccc(CN2CCOCC2)cc1 [Luminespib] (partner 0.01 µM)
In short: as §1

Gemcitabine + Foretinib = compound: Nc1ccn([C@@H]2O[C@H](CO)[C@@H](O)C2(F)F)c(=O)n1 [Gemcitabine] + COc1cc2c(Oc3ccc(NC(=O)C4(C(=O)Nc5ccc(F)cc5)CC4)cc3F)ccnc2cc1OCCCN1CCOCC1 [Foretinib] (partner 0.25 µM)
In short: as §1

Gemcitabine + Linsitinib = compound: Nc1ccn([C@@H]2O[C@H](CO)[C@@H](O)C2(F)F)c(=O)n1 [Gemcitabine] + C[C@]1(O)C[C@@H](c2nc(-c3ccc4ccc(-c5ccccc5)nc4c3)c3c(N)nccn32)C1 [Linsitinib] (partner 1 µM)
In short: as §1

Cell Line	relative viability (Gemcitabine + Navitoclax; first compound 0.001 µM)	relative viability (Gemcitabine + Navitoclax; first compound 0.003162 µM)	relative viability (Gemcitabine + Navitoclax; first compound 0.01 µM)	relative viability (Gemcitabine + Navitoclax; first compound 0.03162 µM)	relative viability (Gemcitabine + Navitoclax; first compound 0.1 µM)	relative viability (Gemcitabine + Luminespib; first compound 0.001 µM)	relative viability (Gemcitabine + Luminespib; first compound 0.003162 µM)	relative viability (Gemcitabine + Luminespib; first compound 0.01 µM)	relative viability (Gemcitabine + Luminespib; first compound 0.03162 µM)	relative viability (Gemcitabine + Luminespib; first compound 0.1 µM)	relative viability (Gemcitabine + Foretinib; first compound 0.001 µM)	relative viability (Gemcitabine + Foretinib; first compound 0.003162 µM)	relative viability (Gemcitabine + Foretinib; first compound 0.01 µM)	relative viability (Gemcitabine + Foretinib; first compound 0.03162 µM)	relative viability (Gemcitabine + Foretinib; first compound 0.1 µM)	relative viability (Gemcitabine + Linsitinib; first compound 0.001 µM)	relative viability (Gemcitabine + Linsitinib; first compound 0.003162 µM)	relative viability (Gemcitabine + Linsitinib; first compound 0.01 µM)	relative viability (Gemcitabine + Linsitinib; first compound 0.03162 µM)	relative viability (Gemcitabine + Linsitinib; first compound 0.1 µM)
NCI-H596	1.06	0.949	0.506	0.23	0.171	1.23	0.949	0.323	0.31	0.305	0.635	0.706	0.287	0.196	0.309	1.11	1.06	0.727	0.384	0.357
NCI-H647	0.916	0.253	0.0668	0.0642	0.0514	0.166	0.118	0.0907	0.0871	0.0761	1.06	0.279	0.0991	0.0846	0.0592	1.27	0.382	0.0832	0.0779	0.0445
NCI-H727	0.311	0.229	0.115	0.146	0.081	0.312	0.288	0.352	0.207	0.342	0.815	0.71	0.376	0.363	0.276	0.325	0.277	0.236	0.219	0.213
NCI-H838	1.17	1.36	1.09	0.367	0.176	0.286	0.289	0.241	0.292	0.18	1.12	1.26	0.999	0.435	0.17	1.05	1.12	0.933	0.328	0.14
NCI-H1355	0.937	0.461	0.168	0.109	0.112	0.724	0.62	0.24	0.22	0.213	0.858	0.7	0.247	0.2	0.187	0.816	0.606	0.221	0.123	0.129
NCI-H1395	1.05	0.859	0.525	0.61	0.414	0.739	0.607	0.391	0.361	0.343	0.922	0.763	0.541	0.388	0.349	1.02	0.814	0.565	0.407	0.334
NCI-H1437	1.06	1.05	0.555	0.206	0.111	1.08	1.02	0.645	0.391	0.191	1.28	1.14	0.867	0.442	0.209	1.05	0.875	0.406	0.213	0.105
NCI-H1651	1.07	1.16	0.928	0.204	0.0844	0.906	0.893	0.731	0.278	0.134	0.805	0.771	0.596	0.137	0.0964	0.884	1.04	0.69	0.211	0.0842
